Laboratory results: PMC11285948, “The effects of CYP2B6 inactivators on the metabolism of ciprofol” (PLOS ONE, 2024)
Values joined by “and” are separate entries in the source; they are usually repeats but may differ in a detail not shown here. Identical values can stand only once. Like-named read-outs stand apart in the source and are kept apart here.

Columns and labels:
[1] = Stability of ciprofol QC samples in liver microsome incubation system; assay type: physicochemical; conditions: liver microsomes; for ciprofol found after storage, Autosampler / ciprofol found after storage, Room Temperature: n = 5; for Stability: calculated concentration: single replicates
Protocol: The incubation system was removed from the water bath, and the reaction was terminated immediately by adding 800 μL of reaction termination solution (acetonitrile solution containing 5 μg·mL^-1 D6-ciprofol at 4°C). The mixture was vortexed for 2 min and centrifuged for 15 min, after which the supernatant was transferred to an autosampler vial for HPLC-MS/MS detection.
To investigate the stability of ciprofol under a variety of conditions, three groups of liver microsome QC sample solutions were prepared, and one group was immediately processed and analysed as described in Section 2.4.2. Another group was stored at room temperature for 8 hours before treatment and assessment. The other group was treated and placed in the autosampler (4°C) for 24 h and subsequently analysed. In addition, simulated plasma QC samples were prepared in five groups: one group was processed and measured immediately as described in Section 2.4.3, and another group was placed in the autosampler for 24 h after treatment. The other three groups were placed at room temperature for 8 h, stored at -40°C for 30 d, frozen and thawed three times, respectively, and then processed and detected as described in Section 2.4.3. All the above samples were tested in parallel in five batches.

[2] = Pharmacokinetics of ciprofol in rats pretreated with psoralen, clopidogrel or CMC; assay type: in vivo, rat; conditions: ciprofol 2.4 mg·kg^-1 i.v.; for concentration at 20 min: T 20.00 min; for concentration at 30 min: T 30.00 min; for concentration at 45 min: T 45.00 min; for concentration at 2 min: T 2.00 min; for concentration at 8 min: T 8.00 min; for concentration at 12 min: T 12.00 min; for concentration at 16 min: T 16.00 min
Protocol: 5 μL of IS solution (2.5 μg·mL^-1 D6-ciprofol) was added to 100 μL of plasma and mixed. Then, 300 μL of acetonitrile was added. The mixture was vortexed for 2 min and centrifuged for 10 min, and the supernatant was transferred to an autosampler vial for HPLC-MS/MS detection.
Twenty-four SD rats were randomly and equally divided into three groups: the control group, psoralen group and clopidogrel group. The administration scheme was as follows: the control group received 0.5% carboxy methyl cellulose by gavage (1 mL·200 g^-1), the psoralen group received 27 mg·kg^-1 psoralen by gavage, and the clopidogrel group was gavaged with 7.5 mg·kg^-1 clopidogrel. […] All rats were treated once daily for seven days. Each rat was injected with 2.4 mg·kg^-1 ciprofol via the tail vein 12 h after the end of dosing on Day 7. Rats that received ciprofol injection were placed on a flat and soft insulation pad. Timekeeping began when the rats were in the supine position and lost the righting reflex and ended when the rats could turn to the prone position successfully. The duration of loss of righting reflex (LORR) in each rat was measured. During this period, approximately 300 μL of blood was collected from the inner canthus at 2, 4, 8, 12, 16, 20, 30, 45, and 60 min after ciprofol administration, and the plasma was separated. The plasma was processed and measured as described in Section 2.4.3, and DAS 2.0 software and a noncompartmental model were used to analyse the pharmacokinetic parameters.
IBM SPSS Statistics 27 software was used to analyse the main pharmacokinetic parameters, and GraphPad Prism 8.0.2 software was used for graphical visualization. One-way ANOVA was used, and multiple comparisons were performed using the least significant difference (LSD)-T test, for which P < 0.05 indicated a significant difference.

[3] = Autosampler for 24 h, QC level H
[4] = Autosampler for 24 h, QC level L
[5] = Autosampler for 24 h, QC level M
[6] = Room - Temperature for 8 h, QC level H
[7] = Room - Temperature for 8 h, QC level L
[8] = Room - Temperature for 8 h, QC level M
[9] = SD, rat, plasma, intravenous, 2.4 mg/kg, rats, Clopidogrel group (7.5 mg·kg^-1 gavage daily 7 d), n = 8
[10] = SD, rat, plasma, intravenous, 2.4 mg/kg, rats, Control group (0.5% CMC gavage 7 d), n = 8
[11] = SD, rat, plasma, intravenous, 2.4 mg/kg, rats, Psoralen group (27 mg·kg^-1 gavage daily 7 d), n = 8
[12] = SD, rat, plasma, iv, 2.4 mg/kg, Control (CMC-Na), rats No.1-8 and Mean
[13] = SD, rat, plasma, iv, 2.4 mg·kg^-1, Control (CMC-Na), rats No.1-8 and Mean
[14] = SD, rat, plasma, iv, 6.75 mg/kg, Clopidogrel(6.75mg/kg)group, rats No.1-8 and Mean
[15] = SD, rat, plasma, iv, 27 mg/kg, Psoralen(27mg/kg)group, rats No.1-8 and Mean

What does the source list for `CC(C)c1cccc([C@H](C)C2CC2)c1O` [ciprofol]?
ciprofol found after storage, Autosampler ([1]; QC 2.5 μg·mL^-1, autosampler (4°C) for 24 h after treatment): 2.54 ± 0.11 µg/mL; ciprofol found after storage, Room Temperature ([1]; QC 2.5 μg·mL^-1, room temperature for 8 h): 2.53 ± 0.19 µg/mL; ciprofol found after storage, Autosampler ([1]; QC 10 μg·mL^-1, autosampler (4°C) for 24 h after treatment): 9.82 ± 0.44 µg/mL; ciprofol found after storage, Room Temperature ([1]; QC 10 μg·mL^-1, room temperature for 8 h): 10.14 ± 0.62 µg/mL; ciprofol found after storage, Autosampler ([1]; QC 75 μg·mL^-1, autosampler (4°C) for 24 h after treatment): 72.07 ± 4.83 µg/mL; ciprofol found after storage, Room Temperature ([1]; QC 75 μg·mL^-1, room temperature for 8 h): 70.43 ± 3.12 µg/mL; Stability: mean calculated concentration [1, 3]: 72.07 µg/mL; Stability: calculated concentration [1, 3]: 64.85 µg/mL and 72.55 µg/mL and 71.79 µg/mL and 72.70 µg/mL and 78.45 µg/mL; Stability: mean calculated concentration [1, 4]: 2.54 µg/mL; Stability: calculated concentration [1, 4]: 2.73 µg/mL and 2.56 µg/mL and 2.49 µg/mL and 2.50 µg/mL and 2.43 µg/mL; Stability: mean calculated concentration [1, 5]: 9.82 µg/mL; Stability: calculated concentration [1, 5]: 9.08 µg/mL and 9.88 µg/mL and 10.27 µg/mL and 9.89 µg/mL and 9.96 µg/mL; Stability: mean calculated concentration [1, 6]: 70.43 µg/mL; Stability: calculated concentration [1, 6]: 71.38 µg/mL and 72.99 µg/mL and 69.04 µg/mL and 65.67 µg/mL and 73.05 µg/mL; Stability: mean calculated concentration [1, 7]: 2.53 µg/mL; Stability: calculated concentration [1, 7]: 2.63 µg/mL and 2.49 µg/mL and 2.51 µg/mL and 2.26 µg/mL and 2.77 µg/mL; Stability: mean calculated concentration [1, 8]: 10.15 µg/mL; Stability: calculated concentration [1, 8]: 9.80 µg/mL and 9.76 µg/mL and 10.83 µg/mL and 10.81 µg/mL and 9.53 µg/mL; Tmax ([2]; Control (CMC-Na), rats No.1-8 and Mean): 2.00 min; Tmax ([2]; Psoralen(27mg/kg)group, rats No.1-8 and Mean): 2.00 min; CLz ([2]; Psoralen(27mg/kg)group, rats No.1-8 and Mean, 27 mg/kg): 140 mL/min/kg and 120 mL/min/kg and 130 mL/min/kg; clearance ([2]; SD, rat, plasma, Psoralen(27mg/kg)group, rats No.1-8 and Mean, read-out: CLz): 130 mL/min/kg; AUC(0-inf) [2, 9]: 318 ± 45 ng·h/mL; AUC(0-t) [2, 9]: 296 ± 40.8 ng·h/mL; Cmax [2, 9]: 1490 ± 292 ng/mL; clearance ([2]; SD, rat, plasma, intravenous, 2.4 mg/kg, rats, Clopidogrel group (7.5 mg·kg^-1 gavage daily 7 d), n = 8, read-out: CL (converted)): 128 mL/min/kg; MRT last ([2]; SD, rat, plasma, intravenous, 2.4 mg/kg, rats, Clopidogrel group (7.5 mg·kg^-1 gavage daily 7 d), n = 8, read-out: MRT0-t): 12.6 ± 1.2 min; MRT inf ([2]; SD, rat, plasma, intravenous, 2.4 mg/kg, rats, Clopidogrel group (7.5 mg·kg^-1 gavage daily 7 d), n = 8, read-out: MRT0-∞): 18.6 ± 6.6 min; Vd ([2]; SD, rat, plasma, intravenous, 2.4 mg/kg, rats, Clopidogrel group (7.5 mg·kg^-1 gavage daily 7 d), n = 8, read-out: Vd): 3.71 ± 2.03 L/kg; half-life ([2]; SD, rat, plasma, intravenous, 2.4 mg/kg, rats, Clopidogrel group (7.5 mg·kg^-1 gavage daily 7 d), n = 8, read-out: t1/2 (converted)): 21 ± 13.8 min; AUC(0-inf) [2, 10]: 268 ± 35.5 ng·h/mL; AUC(0-t) [2, 10]: 260 ± 35.1 ng·h/mL; Cmax [2, 10]: 1550 ± 173 ng/mL; clearance ([2]; SD, rat, plasma, intravenous, 2.4 mg/kg, rats, Control group (0.5% CMC gavage 7 d), n = 8, read-out: CL (converted)): 152 mL/min/kg; MRT last ([2]; SD, rat, plasma, intravenous, 2.4 mg/kg, rats, Control group (0.5% CMC gavage 7 d), n = 8, read-out: MRT0-t): 10.8 ± 0.6 min; MRT inf ([2]; SD, rat, plasma, intravenous, 2.4 mg/kg, rats, Control group (0.5% CMC gavage 7 d), n = 8, read-out: MRT0-∞): 13.2 ± 2.4 min; Vd ([2]; SD, rat, plasma, intravenous, 2.4 mg/kg, rats, Control group (0.5% CMC gavage 7 d), n = 8, read-out: Vd): 3.02 ± 0.72 L/kg; half-life ([2]; SD, rat, plasma, intravenous, 2.4 mg/kg, rats, Control group (0.5% CMC gavage 7 d), n = 8, read-out: t1/2 (converted)): 13.8 ± 3 min; AUC(0-inf) [2, 11]: 315 ± 23.4 ng·h/mL; AUC(0-t) [2, 11]: 299 ± 17.6 ng·h/mL; Cmax [2, 11]: 1490 ± 200 ng/mL; clearance ([2]; SD, rat, plasma, intravenous, 2.4 mg/kg, rats, Psoralen group (27 mg·kg^-1 gavage daily 7 d), n = 8, read-out: CL (converted)): 128 mL/min/kg; MRT last ([2]; SD, rat, plasma, intravenous, 2.4 mg/kg, rats, Psoralen group (27 mg·kg^-1 gavage daily 7 d), n = 8, read-out: MRT0-t): 13.8 ± 1.2 min; MRT inf ([2]; SD, rat, plasma, intravenous, 2.4 mg/kg, rats, Psoralen group (27 mg·kg^-1 gavage daily 7 d), n = 8, read-out: MRT0-∞): 16.8 ± 3 min; Vd ([2]; SD, rat, plasma, intravenous, 2.4 mg/kg, rats, Psoralen group (27 mg·kg^-1 gavage daily 7 d), n = 8, read-out: Vd): 2.8 ± 0.46 L/kg; half-life ([2]; SD, rat, plasma, intravenous, 2.4 mg/kg, rats, Psoralen group (27 mg·kg^-1 gavage daily 7 d), n = 8, read-out: t1/2 (converted)): 15.6 ± 3 min; concentration at 20 min [2, 12]: 159 ng/mL; concentration at 30 min [2, 12]: 93.3 ng/mL; concentration at 45 min [2, 12]: 67.3 ng/mL; Cmax [2, 12]: 1550 ng/mL; clearance ([2]; SD, rat, plasma, iv, 2.4 mg/kg, Control (CMC-Na), rats No.1-8 and Mean, read-out: CLz): 150 mL/min/kg; MRT last ([2]; SD, rat, plasma, iv, 2.4 mg/kg, Control (CMC-Na), rats No.1-8 and Mean, read-out: MRT(0-t) (converted)): 10.8 min; MRT inf ([2]; SD, rat, plasma, iv, 2.4 mg/kg, Control (CMC-Na), rats No.1-8 and Mean, read-out: MRT(0-∞) (converted)): 12.9 min; Vd ([2]; SD, rat, plasma, iv, 2.4 mg/kg, Control (CMC-Na), rats No.1-8 and Mean, read-out: Vz): 3.02 L/kg; half-life ([2]; SD, rat, plasma, iv, 2.4 mg/kg, Control (CMC-Na), rats No.1-8 and Mean, read-out: t1/2z): 13.8 min; concentration at 2 min [2, 13]: 1500 ng/mL; concentration at 8 min [2, 13]: 419 ng/mL; concentration at 12 min [2, 13]: 312 ng/mL; concentration at 16 min [2, 13]: 224 ng/mL; concentration at 2 min [2, 14]: 1050 ng/mL; concentration at 8 min [2, 14]: 406 ng/mL; concentration at 12 min [2, 14]: 334 ng/mL; concentration at 16 min [2, 14]: 266 ng/mL; concentration at 20 min [2, 14]: 193 ng/mL; concentration at 45 min [2, 14]: 65.7 ng/mL; concentration at 60 min ([2]; SD, rat, plasma, iv, 6.75 mg/kg, Clopidogrel(6.75mg/kg)group, T 60.00 min, rats No.1-8 and Mean): 43.3 ng/mL; Cmax [2, 14]: 1490 ng/mL; clearance ([2]; SD, rat, plasma, iv, 6.75 mg/kg, Clopidogrel(6.75mg/kg)group, rats No.1-8 and Mean, read-out: CLz): 130 mL/min/kg; MRT last ([2]; SD, rat, plasma, iv, 6.75 mg/kg, Clopidogrel(6.75mg/kg)group, rats No.1-8 and Mean, read-out: MRT(0-t) (converted)): 12.6 min; concentration at 2 min [2, 15]: 1560 ng/mL; concentration at 4 min ([2]; SD, rat, plasma, iv, 27 mg/kg, Psoralen(27mg/kg)group, T 4.00 min, rats No.1-8 and Mean): 895 ng/mL; concentration at 8 min [2, 15]: 532 ng/mL; concentration at 12 min [2, 15]: 374 ng/mL; concentration at 16 min [2, 15]: 348 ng/mL; concentration at 20 min [2, 15]: 203 ng/mL; concentration at 30 min [2, 15]: 145 ng/mL; Cmax [2, 15]: 1490 ng/mL; MRT last ([2]; SD, rat, plasma, iv, 27 mg/kg, Psoralen(27mg/kg)group, rats No.1-8 and Mean, read-out: MRT(0-t) (converted)): 13.6 min; MRT inf ([2]; SD, rat, plasma, iv, 27 mg/kg, Psoralen(27mg/kg)group, rats No.1-8 and Mean, read-out: MRT(0-∞) (converted)): 17 min; Vd ([2]; SD, rat, plasma, iv, 27 mg/kg, Psoralen(27mg/kg)group, rats No.1-8 and Mean, read-out: Vz): 2.8 L/kg; half-life ([2]; SD, rat, plasma, iv, 27 mg/kg, Psoralen(27mg/kg)group, rats No.1-8 and Mean, read-out: t1/2z): 15.4 min; Tmax ([2]; SD, rat, plasma, iv, Clopidogrel(6.75mg/kg)group, rats No.1-8 and Mean, read-out: Tmax (converted)): 2 min; Tmax ([2]; SD, rat, plasma, iv, Control (CMC-Na), rats No.1-8 and Mean, read-out: Tmax (converted)): 2 min; Tmax ([2]; SD, rat, plasma, iv, Psoralen(27mg/kg)group, rats No.1-8 and Mean, read-out: Tmax (converted)): 2 min
